Results published in patent US20140154702A1, “Methods For Treating Cancer Using Combination Therapies” (ENDOCYTE, INC., priority 2012, published 2014).
Entries after “also recorded” stand apart in the source; their conditions may differ. Read-outs that look alike come from different tables or passages of the source.

What was measured:
Format in all cases: cell-based
KB cells [1] = assay: Inhibition of non-FR-specific activity (cytotoxicity) of EC0531 by co-administered inhibitors, KB cells; settings: for IC50: read-out: IC50 of inhibition of non-FR-specific activity of EC0531
Method: Extracellular thiol activity was determined using the DTNB method described above. […] Cells were seeded in 24-well tissue culture-treated plates at 1×10^5 cells per well and allowed to attach overnight at 37° C. […] To assess non-FR-targeted activity in FR+cells, 100 μM FA was included as a competitor along with the drug in the treatment solutions. Cells were incubated for 2 hours in the presence of drug, washed 3 times with media, and then chased in 0.5 mL of FDRPMI/HIFBS (FR+cells) or RPMI+FA/HIFBS (FR−cells) to 72 h at 37° C. Spent medium was then aspirated from the wells, and cells were incubated with 1 μCi/mL ^3H-thymidine for 4 hours at 37° C., washed two times with PBS, pH 7.4, then treated with 0.4 mL 5% trichloroacetic acid per well. After 15 minutes, the trichloroacetic acid was aspirated from the wells, and cells were solubilized in 0.5 mL 0.25 N sodium hydroxide. Each sample (450 μL) was transferred to a scintillation vial containing 3 mL of Ecolite+scintillation cocktail and then counted in a liquid scintillation counter (LSC). Final results were expressed as percentage of ^3H-thymidine incorporation relative to an untreated control (non-competed groups) or FA control (competed groups).
The inhibition of non-FR-specific activity (i.e., cytotoxicity) was evaluated for each thiol inhibitor.
Cells were seeded in 24-well tissue culture-treated plates at 1×10^5 cells per well and allowed to attach overnight at 37° C. […] Cells were incubated for 2 hours in the presence of drug, competitor, and inhibitor, washed 3 times with media, and then chased in 0.5 mL of FDRPMI/HIFBS to 72 hours at 37° C. Cells were then treated as described above to determine ^3H-thymidine incorporation. Final results were expressed as percentage of ^3H-thymidine incorporation relative to an untreated control (non-competed groups) or FA control (competed groups).
The inhibition of non-FR-specific activity (i.e., cytotoxicity) was evaluated. KB cells were seeded in 24-well tissue culture-treated plates at 1×10^5 cells per well in FDRPMI/HIFBS and allowed to attach to the plates overnight at 37° C. […] Cells were incubated for 2 hours in the presence of drug, FA competitor, and inhibitor, washed 3 times with media, then chased in 0.5 mL of FDRPMI/HIFBS to 72 hours at 37° C. Cells were then treated as described above to determine ^3H-thymidine incorporation. Final results were expressed as percentage of ^3H-thymidine incorporation relative to an untreated control (non-competed groups) or FA control (competed groups). […]

A549 cells [2] = assay: Extracellular thiol activity (DTNB method), A549 cells; settings: for effect of added thiol on extracellular thiol activity (SH concentration): added to SH-free RPMI: GSSG (1.6 μM), cysteine (189 μM), 2 hours, FIG. 11; for effect on release of extracellular thiols (SH concentration): glutamate (5 mM), quisqualic acid (0.3 mM and 1 mM), 2 hours at 37° C., FIG. 12
KB cells [3] = assay: 3H-EC0531 uptake study, KB cells; settings: for effect of inhibitor on nonspecific uptake of 3H-EC0531: 1 μM EC0531 plus inhibitor, 100 μM FA, 2 hours at 37° C.
Method: (§1) To determine non-FR-targeted uptake, 100 μM FA was included in the uptake solutions. Cells were incubated with 0.5 mL of uptake solution for 2 h at 37° C., washed 3 times with ice-cold PBS, and were solubilized in 0.5 mL 1% SDS in PBS, pH 7.4. Cell lysates (450 μL) were added to 3 mL Ecolite+scintillation cocktail and counted in a liquid scintillation counter. Protein concentrations of the remaining lysates were determined using the BCA Protein Assay (Pierce, Rockford, Ill.). Molecules per cell were calculated based on DPM values and previously determined cellular protein conversion factors (2.82×10^−7 and 2.23×10^−7 mg protein per cell for KB and A549, respectively).
(§2) FA at a concentration of 100 μM was used as a competitor to determine non-FR-specific uptake in KB cells. Wells were then washed 3 times with 1 mL of ice-cold PBS, pH 7.4 and were processed for LSC analysis as described above.
(§3) Wells were then washed 3 times with 1 mL of ice-cold PBS, pH 7.4 and were processed for LSC analysis as described above.

A549 cells [4] = assay: 3H-EC0531 uptake study, A549 cells; settings: for effect of inhibitor on nonspecific uptake of 3H-EC0531: 1 μM EC0531 plus inhibitor, 2 hours at 37° C.
Method: as §1, §2, §3

KB cells [5] = assay: Inhibition of non-FR-specific activity (cytotoxicity) of EC0531 by co-administered inhibitors, KB cells; settings: KB cells pre-treated with inhibitor prior to EC0531 and folic acid; DTNB (100 μM), NCEM (10 mM); FIG. 6
A549 cells [6] = assay: Inhibition of non-FR-specific activity (cytotoxicity) of EC0531 by co-administered inhibitors, A549 cells; settings: sulfasalazine (1 mM), glutamate (5 mM) with increasing EC0531, 2 hours, chase to 72 hours, FIG. 14
Method: Cells were then treated as described above to determine ^3H-thymidine incorporation. The inhibition of non-FR-specific activity (i.e., cytotoxicity) was evaluated for each system xc^− inhibitor.

[7] = DTNB 10 μM and 100 μM, excess folic acid, FIG. 8
[8] = KB cells, co-administered with EC0531 (1 μM) and folic acid (100 μM)
[9] = inhibitor concentration 3 mM, co-administration with EC0531
[10] = inhibitor concentration 100 μM, co-administration with EC0531
[11] = KB cells, co-administered with EC0531 (1 μM) and folic acid (100 μM), 2 hours, 72 hour chase

## O=C1OC(c2ccc(O)c(S(=O)(=O)O)c2)(c2ccc(O)c(S(=O)(=O)O)c2)c2c(Br)c(Br)c(Br)c(Br)c21 [BSP]
KB cells [1]
  Inhibition of EC0531 Nonspecific Activity: <50% inhibition

## N[C@@H](CS)C(=O)O [Cysteine, cysteine]
A549 cells [2]
  effect of added thiol on extracellular thiol activity (SH concentration): responsible for stimulation

## O=S(=O)(O)c1cc(N=C=S)ccc1C=Cc1ccc(N=C=S)cc1S(=O)(=O)O [DIDS]
KB cells [3]
  effect of inhibitor on nonspecific uptake of 3H-EC0531: reduced
A549 cells [4]
  effect of inhibitor on nonspecific uptake of 3H-EC0531: reduced
KB cells [1]
  Inhibition of EC0531 Nonspecific Activity: Full inhibition

## O=C(O)c1cc(SSc2ccc([N+](=O)[O-])c(C(=O)O)c2)ccc1[N+](=O)[O-] [DTNB, 5,5′-dithiobis(2-nitrobenzoic acid)]
KB cells [3]
  effect of inhibitor on nonspecific uptake of 3H-EC0531: reduced
KB cells [3]; [7]
  effect of inhibitor on nonspecific uptake of 3H-folic acid: mostly unaffected
A549 cells [4]
  effect of inhibitor on nonspecific uptake of 3H-EC0531: reduced
A549 cells [4]; [7]
  effect of inhibitor on nonspecific uptake of 3H-folic acid: mostly unaffected
KB cells [5]
  inhibition of non-FR-specific activity of EC0531 by pre-treatment of cells: not effective
KB cells [1]; [8]
  inhibition of non-FR-specific activity of EC0531 (in words): dose-responsive inhibition
KB cells [1]; inhibitor concentration 10 μM, co-administration with EC0531
  Inhibition of EC0531 Nonspecific Activity: Full inhibition
KB cells [1]
  IC50: 4.6 µM

## O=S(=O)([O-])CCSSCCS(=O)(=O)[O-].[Na+].[Na+] [Dimesna, 2,2′-dithio-bis-ethanesulfonate]
KB cells [1]
  Inhibition of EC0531 Nonspecific Activity: Full inhibition

## N[C@@H](CCC(=O)N[C@@H](CSCC(=O)Nc1ccc([As](O)O)cc1)C(=O)NCC(=O)O)C(=O)O [EC1277 (GSAO), 4-(N—(S-glutathionylacetyl)amino) phenylarsonous acid]
KB cells [1]; [9]
  Inhibition of EC0531 Nonspecific Activity: Full inhibition

## O=C(O[C@@H]1Cc2c(O)cc(O)cc2O[C@@H]1c1cc(O)c(O)c(O)c1)c1cc(O)c(O)c(O)c1 [EGCg, epigallocatechin gallate]
KB cells [1]; 100 µM
  Inhibition of EC0531 Nonspecific Activity: >50% inhibition

## O=C(O)CCN1C(=O)C=CC1=O [NCEM, N-(2-carboxyethyl)maleimide]
KB cells [3]
  effect of inhibitor on nonspecific uptake of 3H-EC0531: reduced
A549 cells [4]
  effect of inhibitor on nonspecific uptake of 3H-EC0531: reduced
KB cells [5]
  inhibition of non-FR-specific activity of EC0531 by pre-treatment of cells: not effective
KB cells [1]; [8]
  inhibition of non-FR-specific activity of EC0531 (in words): dose-responsive inhibition
KB cells [1]; [10]
  Inhibition of EC0531 Nonspecific Activity: Full inhibition
KB cells [1]; [11]
  IC50: 17 µM

## N[C@@H](CCC(=O)O)C(=O)O [glutamate]
A549 cells [2]
  effect on release of extracellular thiols (SH concentration): significantly reduce
A549 cells [6]
  inhibition of non-FR-specific activity of EC0531 (in words): inhibit

## CN(Cc1cnc2nc(N)nc(N)c2n1)c1ccc(C(=O)N[C@@H](CCC(=O)O)C(=O)O)cc1 [methotrexate]
KB cells [3]
  effect of inhibitor on nonspecific uptake of 3H-EC0531: ineffective
A549 cells [4]
  effect of inhibitor on nonspecific uptake of 3H-EC0531: ineffective

## O=S(=O)([O-])c1cc[c]([Hg][Cl])cc1 [pCMBS, p-chloromercuribenzene sulfonate]
KB cells [1]; [10]
  Inhibition of EC0531 Nonspecific Activity: >50% inhibition

## N[C@@H](Cn1oc(=O)[nH]c1=O)C(=O)O [quisqualic acid]
A549 cells [2]
  effect on release of extracellular thiols (SH concentration): significantly reduce; also recorded: dose-dependent reduction

## O=C(O)c1cc(/N=N/c2ccc(S(=O)(=O)Nc3ccccn3)cc2)ccc1O [sulfasalazine]
KB cells [3]
  effect of inhibitor on nonspecific uptake of 3H-EC0531: reduced
A549 cells [4]
  effect of inhibitor on nonspecific uptake of 3H-EC0531: reduced
A549 cells [6]
  inhibition of non-FR-specific activity of EC0531 (in words): inhibit; also recorded: greater inhibition
KB cells [1]; [8]
  inhibition of non-FR-specific activity of EC0531 (in words): dose-responsive inhibition
KB cells [1]; [11]
  IC50: 170 µM

## folate-maleimide
KB cells [1]; [8]
  inhibition of non-FR-specific activity of EC0531 (in words): dose-responsive inhibition
KB cells [1]; [10]
  Inhibition of EC0531 Nonspecific Activity: Full inhibition
KB cells [1]; [11]
  IC50: 3.5 µM

## methoxy-PEG5000-vinylsulfone
KB cells [1]; [9]
  Inhibition of EC0531 Nonspecific Activity: >50% inhibition

## oxidized glutathione [GSSG]
A549 cells [2]
  effect of added thiol on extracellular thiol activity (SH concentration): no effect
KB cells [1]
  Inhibition of EC0531 Nonspecific Activity: Full inhibition
